ChEMBL document CHEMBL1201862, “PubChem BioAssay data set” (2004)
Active and inactive are the calls of the source.

What was measured:
[1] = target: T1, Ubiquitin-conjugating enzyme E2 N (Homo sapiens, UniProt P61088); format: functional;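 further: Dose-response confirmation in a TR-FRET assay detecting UBC13-driven polyubiquitin chain formation, inhibition measured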
T1 sequence (P61088 whole entry): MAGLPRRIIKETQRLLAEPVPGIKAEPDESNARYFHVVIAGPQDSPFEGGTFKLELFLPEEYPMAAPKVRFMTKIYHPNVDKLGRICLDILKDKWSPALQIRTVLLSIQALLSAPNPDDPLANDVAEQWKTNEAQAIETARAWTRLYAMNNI

[2] = system: H9c2; assay: cells; format: functional, cell-based; conditions: Rattus norvegicus, H9c2, Myocardium;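 further: confirmatory concentration-response retest of ultra-high-throughput screening hits for modulation of myocardial damage; cell death induced by hydrogen peroxide oxidative stress; compound pretreatment for 60 min then peroxide exposure for 2 h; potency is for protecting the cells against peroxide damage rather than for killing them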
[3] = target: T2, Protein RecA (Mycobacterium tuberculosis, UniProt P9WHJ3); assay: Fluorescence Cell-Free Homogeneous Dose Retest to Identify Inhibitors of RecA-Intein Splicing Activity. [Related pubchem assays (depositor defined):AID2097, AID2223, AID489010, AID492950]; format: functional
T2 sequence (P9WHJ3 whole entry): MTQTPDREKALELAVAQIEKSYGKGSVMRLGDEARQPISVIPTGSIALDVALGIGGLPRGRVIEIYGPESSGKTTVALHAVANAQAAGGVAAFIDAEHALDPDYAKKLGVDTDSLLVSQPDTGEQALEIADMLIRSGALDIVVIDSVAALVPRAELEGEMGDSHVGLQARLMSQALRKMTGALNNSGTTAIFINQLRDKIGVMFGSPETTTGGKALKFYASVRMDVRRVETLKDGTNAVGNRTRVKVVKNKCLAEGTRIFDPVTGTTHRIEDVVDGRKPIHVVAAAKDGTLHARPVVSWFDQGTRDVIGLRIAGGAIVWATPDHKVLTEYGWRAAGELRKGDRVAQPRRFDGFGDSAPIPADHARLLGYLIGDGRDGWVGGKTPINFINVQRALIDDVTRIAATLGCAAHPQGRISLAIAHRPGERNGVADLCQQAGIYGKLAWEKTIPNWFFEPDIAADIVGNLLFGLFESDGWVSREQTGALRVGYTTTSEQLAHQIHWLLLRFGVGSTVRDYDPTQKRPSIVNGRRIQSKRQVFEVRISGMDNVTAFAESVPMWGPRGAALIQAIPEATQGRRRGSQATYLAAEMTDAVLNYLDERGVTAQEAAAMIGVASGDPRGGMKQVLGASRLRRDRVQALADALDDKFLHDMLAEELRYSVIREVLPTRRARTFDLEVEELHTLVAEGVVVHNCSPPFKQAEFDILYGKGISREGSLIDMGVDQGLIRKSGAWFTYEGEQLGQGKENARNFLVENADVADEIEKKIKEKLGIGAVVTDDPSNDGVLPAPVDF

[4] = target: Heat shock protein HSP 90-alpha (Homo sapiens, UniProt P07900); format: functional, organism-based
[5] = target: T3, Replicative DNA helicase DnaB (Mycobacterium tuberculosis, UniProt P9WMR3); assay: DnaB intein splicing inhibitors, dose response, biochemical, cell-free fluorescence (AID 449749); format: functional
T3 sequence (P9WMR3 whole entry): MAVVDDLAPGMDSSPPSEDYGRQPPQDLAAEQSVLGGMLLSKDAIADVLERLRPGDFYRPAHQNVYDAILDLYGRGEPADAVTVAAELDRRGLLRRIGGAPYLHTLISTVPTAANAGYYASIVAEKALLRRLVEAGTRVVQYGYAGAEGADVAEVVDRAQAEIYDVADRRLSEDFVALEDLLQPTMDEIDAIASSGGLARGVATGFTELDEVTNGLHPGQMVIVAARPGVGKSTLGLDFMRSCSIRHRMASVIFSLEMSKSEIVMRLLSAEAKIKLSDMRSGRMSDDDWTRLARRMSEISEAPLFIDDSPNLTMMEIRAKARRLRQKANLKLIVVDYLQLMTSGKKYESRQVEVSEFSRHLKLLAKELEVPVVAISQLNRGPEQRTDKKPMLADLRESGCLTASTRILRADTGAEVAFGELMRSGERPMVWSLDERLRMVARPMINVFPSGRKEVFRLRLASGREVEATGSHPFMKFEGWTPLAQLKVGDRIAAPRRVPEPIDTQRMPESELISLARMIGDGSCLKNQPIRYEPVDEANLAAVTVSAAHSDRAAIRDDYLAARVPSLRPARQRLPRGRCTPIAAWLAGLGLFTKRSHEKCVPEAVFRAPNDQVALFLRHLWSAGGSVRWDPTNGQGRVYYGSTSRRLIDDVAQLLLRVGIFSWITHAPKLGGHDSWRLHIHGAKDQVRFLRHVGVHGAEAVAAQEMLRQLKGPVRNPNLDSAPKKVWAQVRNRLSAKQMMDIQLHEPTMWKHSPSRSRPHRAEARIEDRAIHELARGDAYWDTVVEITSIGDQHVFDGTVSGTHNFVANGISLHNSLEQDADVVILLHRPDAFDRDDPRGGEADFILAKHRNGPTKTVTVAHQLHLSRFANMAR

[6] = Luminescence Cell-Based Dose Confirmation HTS to Identify Activators of 5'UTR Stem-Loop Driven Alpha-Synuclein mRNA Translation in H4 Neuroglioblastoma Cells. [Related pubchem assays: 1829 (Project Summary), 1814 (Primary HTS)]; format: functional
[7] = Luminescence Cell-Based Dose Response HTS to Identify Activators of Luciferase Translation or Activity in H4 […] Cells. [Related pubchem assays: 1829 (Project Summary), 1814 (Primary HTS)]; format: functional
[8] = system: H4; assay: Luminescence Cell-Based Dose Response HTS to Identify Activators of 5'UTR Stem-Loop Driven Prion Protein mRNA Translation in H4 Neuroglioblastoma Cells. [Related pubchem assays: 1829 (Project Summary), 1814 (Primary HTS)]; format: functional; conditions: Homo sapiens
[9] = target: Cytochrome P450 3A4 (Homo sapiens, UniProt P08684);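 further: CYP3A4 tested as one member of a cytochrome P450 panel screen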
[10] = target: T4, Corticotropin-releasing factor receptor 2/Corticotropin-releasing factor-binding protein (Homo sapiens, UniProt P24387+Q13324); assay: Dose Response confirmation of uHTS hits for small molecule antagonists of the CRF-binding protein and CRF-R2 receptor complex.; format: functional; conditions: read-out: IC50_Mean
T4 sequence (Q13324 whole entry): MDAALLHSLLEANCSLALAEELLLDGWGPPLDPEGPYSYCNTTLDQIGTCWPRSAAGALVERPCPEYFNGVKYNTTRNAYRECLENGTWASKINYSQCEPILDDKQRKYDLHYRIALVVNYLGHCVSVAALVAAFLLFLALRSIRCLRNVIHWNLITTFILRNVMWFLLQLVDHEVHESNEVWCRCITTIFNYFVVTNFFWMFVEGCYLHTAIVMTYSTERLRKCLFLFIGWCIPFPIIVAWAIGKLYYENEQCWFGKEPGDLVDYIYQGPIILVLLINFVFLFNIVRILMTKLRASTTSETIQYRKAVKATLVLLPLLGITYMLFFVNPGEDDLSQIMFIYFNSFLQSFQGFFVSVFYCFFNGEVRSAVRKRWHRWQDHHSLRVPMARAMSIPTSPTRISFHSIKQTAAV
T4 sequence (P24387 whole entry): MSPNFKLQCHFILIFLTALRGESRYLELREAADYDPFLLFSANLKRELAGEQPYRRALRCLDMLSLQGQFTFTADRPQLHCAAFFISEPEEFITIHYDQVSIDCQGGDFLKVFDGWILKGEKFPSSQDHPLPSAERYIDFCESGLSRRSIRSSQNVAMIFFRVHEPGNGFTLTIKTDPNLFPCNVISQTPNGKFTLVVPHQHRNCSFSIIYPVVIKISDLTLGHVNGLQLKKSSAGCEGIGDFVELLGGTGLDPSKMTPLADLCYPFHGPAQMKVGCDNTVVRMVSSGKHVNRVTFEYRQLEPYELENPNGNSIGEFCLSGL

[11] = target: T4, Corticotropin-releasing factor receptor 2/Corticotropin-releasing factor-binding protein; assay: activators of CRF receptor 2 with binding protein – uHTS hits, confirmation (AID 602473); format: functional; conditions: read-out: EC50_Mean
[12] = inhibitors of intracellular T. cruzi replication, confirmation, NIH3T3 host cells, beta-gal luminescence (AID 2044); format: functional, cell-based;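 further: intracellular parasites grown in NIH/3T3 mouse fibroblasts as host cells; luminescent beta-galactosidase reporter signal from transgenic T. cruzi replicating inside host cells; inhibitors lower the luminescence signal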
[13] = cytotoxicity toward NIH3T3 fibroblasts, dose response, counter-screen, cell-based, ATP luminescence, mouse fibroblasts (AID 2010); format: functional;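 further: cells exposed to compound for about 90 hours before reading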
[14] = control 3'UTR Renilla luciferase suppression, dose response, counter-screen for Shn3 inhibitor project, cell-based, Clone20-Shn3RL, cherry-picked (AID 624133); format: functional

Cytochrome P450 3A4, sequence (P08684 whole entry): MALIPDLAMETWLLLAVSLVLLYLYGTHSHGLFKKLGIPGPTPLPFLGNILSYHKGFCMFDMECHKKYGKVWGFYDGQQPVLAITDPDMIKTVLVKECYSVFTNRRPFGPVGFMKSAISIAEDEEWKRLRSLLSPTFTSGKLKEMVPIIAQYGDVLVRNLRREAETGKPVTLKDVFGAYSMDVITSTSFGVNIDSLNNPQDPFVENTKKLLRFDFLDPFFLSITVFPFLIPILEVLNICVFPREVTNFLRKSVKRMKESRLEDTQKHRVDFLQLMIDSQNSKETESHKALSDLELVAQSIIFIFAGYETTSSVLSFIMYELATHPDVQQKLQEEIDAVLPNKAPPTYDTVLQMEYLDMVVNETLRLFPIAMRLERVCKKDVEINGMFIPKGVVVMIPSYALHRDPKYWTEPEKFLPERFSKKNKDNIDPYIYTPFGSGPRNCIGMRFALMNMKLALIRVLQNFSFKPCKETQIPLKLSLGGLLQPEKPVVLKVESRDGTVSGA

With `O=C1c2cccc3cccc(c23)C(=O)N1Nc1ccccc1` the IC50 [1] was > 20 µM (inactive).
With `CCSc1nnc(NC(=O)C2Cc3ccccc3CN2S(=O)(=O)CC)s1` (stereo unspecified) the IC50 [2] was 10 µM (active).
In the case of `Oc1cc(-c2ccc(C3CCCCC3)cc2)[nH]n1`, the EC50 [3] is reported as 1.01 µM (active), the AC50 [4] is reported as 8 µM (active) and the AC50 [5] is reported as 1.99 µM (active).
In the case of `CC(=O)Nc1cc(C)nn1-c1nc2ccccc2s1`, the IC50 [2] is reported as 11.6 µM (active).
For `CCCOc1ccc(OCCSc2nnc(N)s2)cc1`, the EC50 [6] was 23.1 µM (active), the EC50 [7] was 15 µM (active) and the EC50 [8] was 15.2 µM (active).
For `COc1ccc2cc3cc(C(=O)NCCN4CCc5ccccc5C4)sc3nc2c1`, the EC50 [6] was 6.85 µM (active), the EC50 [7] was 17.8 µM (active) and the EC50 [8] was 15.1 µM (active).
With `CC(C)(C)C(=O)NC(=S)NCCc1ccccc1` the AC50 [9] was 25.1 µM (inconclusive), the IC50 [10] was > 47.1 µM (inactive) and the EC50 [11] was > 53 µM (inactive).
In the case of `Nc1ccc(Cc2nc3c(ccc4ccccc43)[nH]2)cc1`, the EC50 [6] is reported as 14 µM (active), the EC50 [7] is reported as 24.8 µM (active) and the EC50 [8] is reported as 14.7 µM (active).
For `COc1cccc(C2(O)CC(C(F)(F)F)=NN2C(=O)c2ccccn2)c1` (stereo unspecified), the EC50 [6] was 18.5 µM (active), the EC50 [7] was > 120 µM (not active) and the EC50 [8] was 7.55 µM (active).
For `CC(=O)c1cc(-c2ccccc2)n(CC(=O)NC2CCCC2)c1C`, the EC50 [6] was > 120 µM (not active), the EC50 [7] was > 120 µM (not active) and the EC50 [8] was > 120 µM (not active).
In the case of `Cc1c(O)ccc2c3c(c(=O)oc12)CCC(C)C3` (stereo unspecified), the IC50 [2] is reported as > 79 µM (inactive).
In the case of `CCOC(=O)COc1cccc(C2NC(=O)c3ccccc3O2)c1` (stereo unspecified), the IC50 [2] is reported as 12.7 µM (active).
With `O=C1C2C3C=CC(CO)(O3)C2C(=O)N1c1ccc(-c2ccccc2)cc1` (stereo unspecified) the EC50 [6] was > 120 µM (not active), the EC50 [7] was 8.45 µM (active) and the EC50 [8] was 15.5 µM (active).
In the case of `CCOC(=O)C1CCCN(C(=O)c2cccc(S(=O)(=O)N(Cc3ccccc3)c3ccccc3OC)c2)C1` (stereo unspecified), the IC50 [10] is reported as > 47.1 µM (inactive), the EC50 [12] is reported as 3.84 µM (active) and the EC50 [11] is reported as > 53 µM (inactive). The EC50 [13] was 35.2 µM (active).
For `COc1cc2c(cc1NC(=O)CSc1ccccn1)oc1ccccc12`, the EC50 [6] was 10.9 µM (active), the EC50 [7] was 15 µM (active) and the EC50 [8] was 30.4 µM (active).
For `CN(C)CC(O)COc1ccc(C(C)(C)c2ccc(OCC(O)CN(C)C)cc2)cc1` (stereo unspecified), the IC50 [1] was > 20 µM (inactive).
For `CC(Sc1nnc(Cc2cccs2)n1C1CC1)C(=O)NC1CCS(=O)(=O)C1` (stereo unspecified), the IC50 [10] was > 47.1 µM (inactive) and the EC50 [11] was > 53 µM (inactive).
For `COc1ccc(OC(=O)c2ccc(Cl)cc2)c(C(C)=O)c1`, the IC50 [10] was > 47.1 µM (inactive) and the EC50 [11] was > 53 µM (inactive).
With `COc1ccc(CC(=O)N(C)CC(=O)Nc2ccccc2Cl)cc1S(=O)(=O)N1CCOCC1` the IC50 [1] was > 20 µM (inactive).
For `CC(C)(C)c1nc(CN2CCCCC2)cc(CN2CCCCC2)c1O`, the IC50 [10] was > 47.1 µM (inactive) and the EC50 [11] was > 53 µM (inactive).
With `Cc1cc(C)cc(C(=O)NCC(=O)OCC(=O)NCC(F)(F)F)c1` the AC50 [14] was 9.91 µM (active).
For `Sc1nc2ccccc2c2ccccc12`, the IC50 [2] was 31.5 µM (inactive).
In the case of `Cc1nc(-c2ccccn2)nc(S)c1Cl`, the IC50 [2] is reported as > 79 µM (inactive).
With `O=C(NN1C(=O)c2ccc3c4c(ccc(c24)C1=O)CC3)c1ccc(Br)cc1` the IC50 [1] was > 20 µM (inactive).
For `O=C(CSc1ccc2nnc(-c3ccc(F)cc3)n2n1)N1CCCc2ccccc21`, the IC50 [2] was > 79 µM (inactive).
For `N#CC1=C(N)Oc2cc(N)ccc2C1C1CCCCC1` (stereo unspecified), the EC50 [6] was > 120 µM (not active), the EC50 [7] was > 120 µM (not active) and the EC50 [8] was > 120 µM (not active).
In the case of `COc1ccc(-c2cc3cc(OC)c(OC)cc3cn2)cc1OC`, the EC50 [6] is reported as 10.2 µM (active), the EC50 [7] is reported as 21.7 µM (active) and the EC50 [8] is reported as 18 µM (active).
For `CCCCn1c(-c2cccs2)nc2nc3ccccc3nc21`, the IC50 [1] was > 20 µM (inactive).
With `Cc1ccc(C2CN=NC23CCc2ccccc2C3=O)cc1` (stereo unspecified) the EC50 [6] was 15.3 µM (active), the EC50 [7] was 23.9 µM (active) and the EC50 [8] was > 120 µM (not active).
With `CC1(C)c2[nH]c3ccccc3c2C[C@H]2C(=O)N(Cc3ccccc3)C(=O)N21` the IC50 [10] was > 47.1 µM (inactive) and the EC50 [11] was > 53 µM (inactive).
In the case of `CCNC(C(=O)c1c[nH]c2c(CC)cccc12)c1ccccc1` (stereo unspecified), the IC50 [1] is reported as > 20 µM (inactive).
In the case of `COc1ccc(OCC(O)CN2CCc3ccccc3C2)cc1` (stereo unspecified), the IC50 [10] is reported as > 47.1 µM (inactive) and the EC50 [11] is reported as > 53 µM (inactive).
With `COc1ccccc1-n1ccnc(SCC(=O)NCc2ccccc2Cl)c1=O` the AC50 [14] was 13 µM (active).
With `N#Cc1ccccc1OCC(=O)Nc1nc(-c2ccccn2)cs1` the IC50 [2] was > 79 µM (inactive).
